Laboratory results taken from patent US12338218B2, “Crystal form of benzimidazole-2-one compound, solvate thereof, crystal form of solvate thereof, and preparation method thereof” (MEDSHINE DISCOVERY INC., priority 2019, dated 2025).

Experiments:
[1] = tested on: PMA-induced ear edema in CD-1 mice; test: In vivo model of PMA-induced ear edema in CD-1 mice; conditions: for inhibition rate of ear edema / inhibition rate of ear weight gain: application BID, 10 hours after PMA induction
Description: 1 mL of acetone was added to completely dissolve 1 mg of PMA, and then 800 μL of mother liquor was pipetted and added to 2400 μL of acetone to prepare 0.25 mg/mL PMA.
CD-1 mice were sorted according to ear thickness and body weight. […] 10 μL of PMA with a concentration of 0.25 mg/mL was applied to the front and back sides of the right ear of each mouse.
The mice in the first group were normal mice, and these mice will not be treated in any way; the mice in the second group were given a vehicle; and the mice in the third group, the fourth group, and the fifth group were given compound 1 at a dose of 0.1 mg/ear, 0.3 mg/ear, and 1 mg/ear, respectively. Drugs were applied to the right ear of the mice 30 minutes before and 15 minutes after PMA induction, respectively.
Measurement and sampling: Ten hours after PMA induction, the mice were anesthetized and the thickness of the right ear was measured. After measuring the thickness of the right ear, the mouse was immediately euthanized, and the ear piece was collected and weighed.
The assay data was expressed as mean±standard error of mean (Mean±SEM), and the degree of ear swelling and ear weight were analyzed by one-way analysis of variance (One-way ANOVA), wherein p<0.05 was considered a significant difference.

[2] = tested on: lipopolysaccharide (LPS)-induced TNFα production in human peripheral blood mononuclear cells; test: Inhibition of LPS-induced TNFα production in hPBMC (ELISA); format: cell-based
Description: Inhibitory activity of compound 1 on lipopolysaccharide (LPS)-induced TNFα production in human peripheral blood mononuclear cells.
PBMC cells were inoculated into a 96-well plate of cell culture grade at a density of 100,000 cells/100 μL/well. The cell culture medium was RPMI-1640 supplemented with 10% serum. The plate was incubated in a 37° C., 5% CO2 incubator for 2 hours. 16.8 μL/well of the assay compound was added to the cells and then the cells were incubated in a 37° C., 5% CO2 incubator for 60 minutes. 16.8 μL/well of LPS was then added to the cells and the cells were incubated in a 37° C., 5% CO2 incubator for 18 hours. The final DMSO concentration was 0.1%.
In the first step, compound 1 was diluted from a stock concentration to 1.5 mM with 100% DMSO. In the second step, the diluted compound was used as the first point and serially diluted 3-fold with 100% DMSO for 9 points. In the third step, the compound was diluted 125-fold with a serum-free medium, at which time the concentration of DMSO was 0.8%. Then 16.8 μL of the compound diluted with the medium was transferred to a 100 μL cell plate.
The compound was added, and then the cell plate was placed in a 37° C., 5% CO2 incubator and incubated for 1 hour.
In the first step, LPS was diluted with ultrapure water to a stock concentration of 1 mg/mL. […]

[3] = target: Recombinant human PDE4B (Homo sapiens (Human), UniProt Q07343); test: PDE4B enzyme inhibition, fluorescence polarization (Transcreener AMP2/GMP2); format: biochemical
Recombinant human PDE4B, sequence (Q07343 305-736 limits assumed): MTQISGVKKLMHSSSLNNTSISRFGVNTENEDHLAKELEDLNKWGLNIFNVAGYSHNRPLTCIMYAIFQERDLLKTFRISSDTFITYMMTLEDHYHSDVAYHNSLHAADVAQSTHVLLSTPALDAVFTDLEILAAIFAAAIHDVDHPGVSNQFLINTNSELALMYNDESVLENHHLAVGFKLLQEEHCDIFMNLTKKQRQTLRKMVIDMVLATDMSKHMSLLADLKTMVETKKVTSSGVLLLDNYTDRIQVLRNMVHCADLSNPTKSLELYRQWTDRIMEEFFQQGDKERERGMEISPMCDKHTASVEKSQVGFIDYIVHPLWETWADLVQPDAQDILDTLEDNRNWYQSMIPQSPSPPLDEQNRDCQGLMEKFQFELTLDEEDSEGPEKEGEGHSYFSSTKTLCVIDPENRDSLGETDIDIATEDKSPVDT
Description: The biological assay was based on fluorescence polarization measurement of AMP/GMP expression, that is, tracing binding of AMP/GMP antibody to indicate the activity of the enzyme.
Buffer solution for the assay: 10 mM trihydroxymethyl aminomethane-hydrochloric acid buffer solution (Tris-HCl) (pH 7.5), 5 mM MgCl2, 0.01% polyoxyethylene lauryl ether (Brij 35), 1 mM dithiothreitol (DTT), and 1% DMSO.
Enzyme: Recombinant human PDE4B (Genebank Accession Number NM_002600; amino acid 305 terminal) was expressed with baculovirus in Sf9 insect cells using N-terminal GST tag. MW=78 kDa.
Enzyme substrate: 1 μM cAMP
Detection: Transcreener® AMP2/GMP2 antibody and AMP2/GMP2 AlexaFluor633 tracing.
• 1. Dissolving the recombinant human PDE4B enzyme and enzyme substrate (1 μM cAMP) in freshly prepared assay buffer, respectively; • 2. Transferring the above PDE4B enzyme buffer solution to reaction wells; • 3. Adding compound 1 dissolved with 100% DMSO to reaction wells with the PDE4B enzyme buffer solution via acoustic technology (echo 550 nanoliter range) and incubating at room temperature for 10 min; • 4. […] The range of fluorescence polarization determination was Ex/Em=620/688. […]
The fluorescence polarization signal was converted into nM based on AMP/GMP standard curve and % enzyme activity calculated by Excel software relative to the DMSO control. […]

IC50 ([2]; Homo sapiens, PBMC, TNFα production in hPBMC, LPS 18 hours, average in triplicate): 63.9 nM
in vitro activity of inhibiting PDE4B (in words) [3]: excellent in vitro activity
IC50 ([3]; PDE4B, 1 μM cAMP substrate, average in triplicate): 26.2 nM
Compound: CCOc1cc([C@@H](CS(C)(=O)=O)n2c(=O)[nH]c3cc(F)ccc32)ccc1OC [Compound 1]
inhibition rate of ear edema ([1]; 0.1 mg/ear): 22%
inhibition rate of ear weight gain ([1]; 0.1 mg/ear): 39%
inhibition rate of ear edema ([1]; 0.3 mg/ear): 39%
inhibition rate of ear weight gain ([1]; 0.3 mg/ear): 46%
inhibition rate of ear edema ([1]; 1 mg/ear): 88%
inhibition rate of ear weight gain ([1]; 1 mg/ear): 85%
effect on the symptoms of PMA-induced ear edema (in words) ([1]; three dose groups of 0.1, 0.3 and 1 mg/ear): significant improvement effect
in vitro activity of inhibiting TNFα production in hPBMC (in words) [2]: excellent in vitro activity
